Reference: BindingDB's records for doi:10.1016/S0960-894X(01)80724-1 (1993)

Target: Squalene synthase (Candida albicans)
Experiment: Inhibition of Candida albicans squalene synthase(SQS)

SMILES	IC50 [nM]
C=C(CC[C@]12O[C@H](C(=O)O)[C@@](O)(C(=O)O)[C@](C(=O)O)(O1)[C@H](OC(=O)CCCCCCC)[C@H]2OC(=O)CCCCCCC)[C@@H](OC(C)=O)[C@H](C)Cc1ccccc1 [(1S,3S,4S,5R,6R,7R)-1-((4S,5R)-4-Acetoxy-5-methyl-3-methylene-6-phenyl-hexyl)-4-hydroxy-6,7-bis-octanoyloxy-2,8-dioxa-bicyclo[3.2.1]octane-3,4,5-tricarboxylic acid]	> 200
C=C(CC[C@]12O[C@H](C(=O)O)[C@@](O)(C(=O)O)[C@](C(=O)O)(O1)[C@H](OC(=O)/C=C/c1ccccc1)[C@H]2O)[C@@H](OC(C)=O)[C@H](C)Cc1ccccc1 [(1S,3S,4S,5R,6R,7R)-1-((4S,5R)-4-Acetoxy-5-methyl-3-methylene-6-phenyl-hexyl)-4,7-dihydroxy-6-[(E)-(3-phenyl-acryloyl)oxy]-2,8-dioxa-bicyclo[3.2.1]octane-3,4,5-tricarboxylic acid]	10
C=C(CC[C@]12O[C@H](C(=O)O)[C@@](O)(C(=O)O)[C@](C(=O)O)(O1)[C@H](O)[C@H]2OC(=O)OC)[C@@H](OC(C)=O)[C@H](C)Cc1ccccc1 [(1S,3S,4S,5R,6R,7R)-1-((4S,5R)-4-Acetoxy-5-methyl-3-methylene-6-phenyl-hexyl)-4,6-dihydroxy-7-methoxycarbonyloxy-2,8-dioxa-bicyclo[3.2.1]octane-3,4,5-tricarboxylic acid]	> 200
C=C(CC[C@]12O[C@H](C(=O)O)[C@@](O)(C(=O)O)[C@](C(=O)O)(O1)[C@H](OC(=O)CCCCCCc1ccccc1)[C@H]2O)[C@@H](OC(C)=O)[C@H](C)Cc1ccccc1 [(1S,3S,4S,5R,6R,7R)-1-((4S,5R)-4-Acetoxy-5-methyl-3-methylene-6-phenyl-hexyl)-4,7-dihydroxy-6-(7-phenyl-heptanoyloxy)-2,8-dioxa-bicyclo[3.2.1]octane-3,4,5-tricarboxylic acid]	7
C=C(CC[C@]12O[C@H](C(=O)O)[C@@](O)(C(=O)O)[C@](C(=O)O)(O1)[C@H](OC(=O)OCCCCCCCCC)[C@H]2O)[C@@H](OC(C)=O)[C@H](C)Cc1ccccc1 [(1S,3S,4S,5R,6R,7R)-1-((4S,5R)-4-Acetoxy-5-methyl-3-methylene-6-phenyl-hexyl)-4,7-dihydroxy-6-nonyloxycarbonyloxy-2,8-dioxa-bicyclo[3.2.1]octane-3,4,5-tricarboxylic acid]	2
C=C(CC[C@]12O[C@H](C(=O)O)[C@@](O)(C(=O)O)[C@](C(=O)O)(O1)[C@H](OC(=O)OCCCC)[C@H]2O)[C@@H](OC(C)=O)[C@H](C)Cc1ccccc1 [(1S,3S,4S,5R,6R,7R)-1-((4S,5R)-4-Acetoxy-5-methyl-3-methylene-6-phenyl-hexyl)-6-butoxycarbonyloxy-4,7-dihydroxy-2,8-dioxa-bicyclo[3.2.1]octane-3,4,5-tricarboxylic acid]	8
C=C(CC[C@]12O[C@H](C(=O)O)[C@@](O)(C(=O)O)[C@](C(=O)O)(O1)[C@H](O)[C@H]2OC(C)=O)[C@@H](OC(C)=O)[C@H](C)Cc1ccccc1 [(1S,3S,4S,5R,6R,7R)-7-Acetoxy-1-((4S,5R)-4-acetoxy-5-methyl-3-methylene-6-phenyl-hexyl)-4,6-dihydroxy-2,8-dioxa-bicyclo[3.2.1]octane-3,4,5-tricarboxylic acid]	> 200
C=C(CC[C@]12O[C@H](C(=O)O)[C@@](O)(C(=O)O)[C@](C(=O)O)(O1)[C@H](O)[C@H]2OC(=O)CCCCCCC)[C@@H](OC(C)=O)[C@H](C)Cc1ccccc1 [(1S,3S,4S,5R,6R,7R)-1-((4S,5R)-4-Acetoxy-5-methyl-3-methylene-6-phenyl-hexyl)-4,6-dihydroxy-7-octanoyloxy-2,8-dioxa-bicyclo[3.2.1]octane-3,4,5-tricarboxylic acid]	> 200
